Experimental data taken from US20260062443A1 (ALEXION PHARMACEUTICALS, INC., priority 2022, published 2026).

What follows are compounds tested against T1, Human complement C1s enzyme (Homo sapiens, UniProt P09871) (assay: Human C1s enzyme assay). Conditions: not given.
T1 sequence (P09871 438-688 limits assumed): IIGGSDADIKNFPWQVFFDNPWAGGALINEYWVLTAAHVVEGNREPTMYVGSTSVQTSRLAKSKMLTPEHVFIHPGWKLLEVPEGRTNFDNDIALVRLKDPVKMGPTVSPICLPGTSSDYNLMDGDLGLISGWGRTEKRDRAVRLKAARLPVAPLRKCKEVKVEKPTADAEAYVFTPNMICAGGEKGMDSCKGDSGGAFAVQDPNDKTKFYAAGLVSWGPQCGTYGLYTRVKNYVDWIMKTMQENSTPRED
T1 sequence (P09871 16-437 partner limits assumed): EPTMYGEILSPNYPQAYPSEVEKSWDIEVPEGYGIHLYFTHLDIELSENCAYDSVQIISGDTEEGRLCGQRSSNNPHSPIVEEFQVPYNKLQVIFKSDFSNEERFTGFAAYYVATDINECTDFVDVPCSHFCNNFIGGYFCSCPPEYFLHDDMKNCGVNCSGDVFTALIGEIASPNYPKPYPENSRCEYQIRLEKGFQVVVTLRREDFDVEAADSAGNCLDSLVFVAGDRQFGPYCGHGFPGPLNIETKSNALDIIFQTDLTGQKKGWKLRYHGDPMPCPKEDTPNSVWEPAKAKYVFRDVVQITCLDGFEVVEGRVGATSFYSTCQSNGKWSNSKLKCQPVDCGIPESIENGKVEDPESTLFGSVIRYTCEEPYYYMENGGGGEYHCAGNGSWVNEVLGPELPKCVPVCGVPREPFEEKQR
Format: biochemical
Method in brief: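 Serum-purified human C1s (1.16 nM final) preincubated 5 min at room temperature with compound in 50 mM Tris, 1 M NaCl, pH 7.5. Z-L-Lys-SBzl and DTNB added at 100 μM each; A405 followed every 30 s for 30 min, and IC50 obtained by nonlinear regression of reaction rates.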

| SMILES | IC50 [nM] |
| --- | --- |
| C[C@@H](NC(=O)[C@@H]1C[Si](C)(C)CN1C(=O)CNC(=O)c1ccc2c(c1)Oc1ccccc1S2)c1cc2cnccc2[nH]1 [Compound 168, (R)-N-((R)-1-(1H-pyrrolo[3,2-c]pyridin-2-yl)ethyl)-3,3-dimethyl-1-((phenoxathiine-3-carbonyl)glycyl)-1,3-azasilolidine-5-carboxamide] | < 100 |

Same assay, conditions: human complement C1s enzyme 1.16 nM, substrate Z-L-Lys-SBzl 100 μM, 5 min preincubation; read-out: IC50 (Stars), C1s Inhibiting Activity

| SMILES | IC50 [nM] |
| --- | --- |
| O=C(NCC(=O)N1C[C@H](OC(F)F)C[C@H]1C(=O)NCc1cnc2c(c1)CNC2)c1ccc2c(c1)Oc1ccccc1S2 [Compound 253, (2S,4R)-4-(difluoromethoxy)-N-((6,7-dihydro-5H-pyrrolo[3,4-b]pyridin-3-yl)methyl)-1-((phenoxathiine-3-carbonyl)glycyl)pyrrolidine-2-carboxamide] | 100 to 1000 |
| O=C(NCC(=O)N1CC[C@H](c2ccccc2)[C@H]1C(=O)NCc1cc2cnccc2[nH]1)c1ccc2c(c1)Oc1ccccc1S2 [Compound 214, (2S,3R)-N-((1H-pyrrolo[3,2-c]pyridin-2-yl)methyl)-1-((phenoxathiine-3-carbonyl)glycyl)-3-phenylpyrrolidine-2-carboxamide] | > 1000 |
| C[C@@]12C[C@@H]1N(C(=O)CNC(=O)CCCOc1ccccc1)[C@H](C(=O)N[C@@H]1CCn3c(CN)ccc31)C2 [Compound 78, (1S,3S,5S)-N-((R)-5-(aminomethyl)-2,3-dihydro-1H-pyrrolizin-1-yl)-5-methyl-2-((4-phenoxybutanoyl)glycyl)-2-azabicyclo[3.1.0]hexane-3-carboxamide] | 100 to 1000 |
| C[C@@H](NC(=O)[C@@H]1C[C@@H](OC(F)F)CN1C(=O)CNC(=O)c1ccc(Oc2ccccc2)cc1)c1cc2cnccc2s1 [Compound 209, (2S,4R)-4-(difluoromethoxy)-1-((4-phenoxybenzoyl)glycyl)-N-((R)-1-(thieno[3,2-c]pyridin-2-yl)ethyl)pyrrolidine-2-carboxamide] | 100 to 1000 |
| O=C(NCC(=O)N1CC2(C[C@H]1C(=O)NCc1cc3ccccc3[nH]1)OCCO2)c1ccc(Oc2ccccc2)cc1 [Compound 11, (S)-N-((1H-indol-2-yl)methyl)-7-((4-phenoxybenzoyl)glycyl)-1,4-dioxa-7-azaspiro[4.4]nonane-8-carboxamide] | > 1000 |
| C[C@@H](NC(=O)[C@@H]1C[C@](F)(CF)CN1C(=O)CNC(=O)c1ccc2c(c1)-c1ccccc1C2(F)F)c1cc2cnccc2[nH]1 [Compound 86, (2S,4R)-N-((R)-1-(1H-pyrrolo[3,2-c]pyridin-2-yl)ethyl)-1-((9,9-difluoro-9H-fluorene-3-carbonyl)glycyl)-4-fluoro-4-(fluoromethyl)pyrrolidine-2-carboxamide] | 100 to 1000 |
| O=C(NCC(=O)N1C[C@H](OC(F)F)C[C@H]1C(=O)NCc1ccc2c(n1)NCC2)c1ccc2c(c1)Oc1ccccc1S2 [Compound 265, (2S,4R)-4-(difluoromethoxy)-N-((2,3-dihydro-1H-pyrrolo[2,3-b]pyridin-6-yl)methyl)-1-((phenoxathiine-3-carbonyl)glycyl)pyrrolidine-2-carboxamide] | > 1000 |
| CS(=O)(=O)[C@@H]1C[C@@H](C(=O)N[C@H](CO)c2cc3cnccc3[nH]2)N(C(=O)CNC(=O)c2ccc(Oc3ccc(F)cc3)cc2)C1 [Compound 96, (2S,4R)-1-((4-(4-fluorophenoxy)benzoyl)glycyl)-N-((S)-2-hydroxy-1-(1H-pyrrolo[3,2-c]pyridin-2-yl)ethyl)-4-(methylsulfonyl) pyrrolidine-2-carboxamide] | > 1000 |
| CC(C)c1ccc(Oc2cccc(C(=O)NCC(=O)N3C[C@H](OC(F)F)C[C@H]3C(=O)NCc3cc4cnccc4[nH]3)c2)cc1 [Compound 215, (2S,4R)-N-((1H-pyrrolo[3,2-c]pyridin-2-yl)methyl)-4-(difluoromethoxy)-1-((3-(4-isopropylphenoxy)benzoyl)glycyl)pyrrolidine-2-carboxamide] | < 100 |
| C[C@@]12C[C@@H]1N(C(=O)CNC(=O)c1ccc3c(c1)Oc1ccccc1S3)[C@H](C(=O)NCc1cccc(B(O)O)c1)C2 [Compound 250, (3-(((1S,3S,5S)-5-methyl-2-((phenoxathiine-3-carbonyl)glycyl)-2-azabicyclo[3.1.0]hexane-3-carboxamido)methyl)phenyl) boronic acid] | > 1000 |
| Cc1ccc2c(c1)Sc1ccc(C(=O)NCC(=O)N3C[C@H](OC(F)F)C[C@H]3C(=O)N[C@H](C)c3cc4cnccc4[nH]3)cc1O2 [Compound 286, (2S,4R)-N-((R)-1-(1H-pyrrolo[3,2-c]pyridin-2-yl)ethyl)-4-(difluoromethoxy)-1-((8-methylphenoxathiine-3-carbonyl)glycyl)pyrrolidine-2-carboxamide] | < 100 |
| O=C(NCC(=O)N1CC2(C[C@H]1C(=O)NCc1cc3ccncc3[nH]1)OCCO2)c1ccc2c(c1)-c1ccccc1C2(F)F [Compound 9, (S)-N-((1H-pyrrolo[2,3-c]pyridin-2-yl)methyl)-7-((9,9-difluoro-9H-fluorene-3-carbonyl)glycyl)-1,4-dioxa-7-azaspiro[4.4]nonane-8-carboxamide] | 100 to 1000 |

The remaining lines, values ahead:

| IC50 [nM] | SMILES |
| --- | --- |
| < 100 | C[C@@H](NC(=O)[C@@H]1C[C@@H](S(C)(=O)=O)CN1C(=O)CNC(=O)c1ccc2c(c1)Oc1ccccc1S2)c1cc2cnccc2[nH]1 [Compound 238, (2S,4R)-N-((R)-1-(1H-pyrrolo[3,2-c]pyridin-2-yl)ethyl)-4-(methylsulfonyl)-1-((phenoxathiine-3-carbonyl)glycyl)pyrrolidine-2-carboxamide] |
| < 100 | O=C(NCC(=O)N1CC2(C[C@H]1C(=O)NCc1cc3cnccc3[nH]1)OCCO2)c1cccc(Oc2ccc(F)cc2)c1 [Compound 157, (S)-N-((1H-pyrrolo[3,2-c]pyridin-2-yl)methyl)-7-((3-(4-fluorophenoxy)benzoyl)glycyl)-1,4-dioxa-7-azaspiro[4.4]nonane-8-carboxamide] |
| < 100 | O=C(NCC(=O)N1C[C@H](OC(F)F)C[C@H]1C(=O)NCc1cc2cnccc2[nH]1)c1ccc(Oc2ccccc2)cc1 [Compound 18, (2S,4R)-N-((1H-pyrrolo[3,2-c]pyridin-2-yl)methyl)-4-(difluoromethoxy)-1-((4-phenoxybenzoyl)glycyl) pyrrolidine-2-carboxamide] |
| < 100 | Cc1ccc(Nc2cccc(C(=O)NCC(=O)N3C[C@H](OC(F)F)C[C@H]3C(=O)NCc3cc4cnccc4[nH]3)c2)c(F)c1 [Compound 324, (2S,4R)-N-((1H-pyrrolo[3,2-c]pyridin-2-yl)methyl)-4-(difluoromethoxy)-1-((3-((2-fluoro-4-methylphenyl)amino)benzoyl)glycyl) pyrrolidine-2-carboxamide] |
| < 100 | CO[C@@H]1C[C@@H](C(=O)N[C@H](C)c2cc3cnccc3[nH]2)N(C(=O)CNC(=O)c2ccc3c(c2)Oc2ccccc2S3)C1 [Compound 160, (2S,4R)-N-((R)-1-(1H-pyrrolo[3,2-c]pyridin-2-yl)ethyl)-4-methoxy-1-((phenoxathiine-3-carbonyl)glycyl)pyrrolidine-2-carboxamide] |
| < 100 | O=C(NCC(=O)N1C[C@H](OC(F)F)C[C@H]1C(=O)NCc1cc2cnccc2[nH]1)c1cccc(Oc2ccsc2)c1 [Compound 303, (2S,4R)-4-(difluoromethoxy)-N-(1H-pyrrolo[3,2-c]pyridin-2-ylmethyl)-1-[2-[[3-(3-thienyloxy)benzoyl]amino]acetyl]pyrrolidine-2-carboxamide] |
| < 100 | Cc1ccc(Cc2cccc(C(=O)NCC(=O)N3C[C@H](OC(F)F)C[C@H]3C(=O)NCc3cc4cnccc4[nH]3)c2)c(F)c1 [Compound 305, (2S,4R)-N-((1H-pyrrolo[3,2-c]pyridin-2-yl)methyl)-4-(difluoromethoxy)-1-((3-(2-fluoro-4-methylbenzyl)benzoyl)glycyl)pyrrolidine-2-carboxamide] |
| < 100 | O=C(NCc1cc2cnccc2[nH]1)[C@@H]1CC2(CN1C(=O)CN1Cc3cc(-c4ccc(F)cc4F)ccc3C1=O)OCCO2 [Compound 120, (S)-N-((1H-pyrrolo[3,2-c]pyridin-2-yl)methyl)-7-(2-(5-(2,4-difluorophenyl)-1-oxoisoindolin-2-yl)acetyl)-1,4-dioxa-7-azaspiro[4.4]nonane-8-carboxamide] |
| < 100 | COC[C@@]1(F)C[C@@H](C(=O)NCc2cc3cnccc3[nH]2)N(C(=O)CNC(=O)c2ccc(Oc3ccccc3)cc2)C1 [Compound 30, (2S,4R)-N-((1H-pyrrolo[3,2-c]pyridin-2-yl)methyl)-4-fluoro-4-(methoxymethyl)-1-((4-phenoxybenzoyl)glycyl) pyrrolidine-2-carboxamide] |
| < 100 | C[C@@H](NC(=O)[C@@H]1C[C@]2(C)C[C@@H]2N1C(=O)CNC(=O)c1ccc2oc3ccccc3c2c1)c1cc2cnccc2[nH]1 [Compound 200, (1S,3S,5S)-N-((R)-1-(1H-pyrrolo[3,2-c]pyridin-2-yl)ethyl)-2-((dibenzo[b,d]furan-2-carbonyl)glycyl)-5-methyl-2-azabicyclo[3.1.0]hexane-3-carboxamide] |
